Source: US20170129915A1, “THERAPEUTIC AGENT FOR DISEASES ASSOCIATED WITH NERVE AXON DYSFUNCTION, INCLUDING THERAPEUTIC AGENT FOR ALZHEIMER'S DISEASE” (Resilio Company Limited, priority 2014, published 2017)

Legend:
[1] = system: spinal cord injury (SCI) model mice; experiment: Evaluation of hindlimb motor function based on BMS and TMS; type: in vivo; settings: suspension in sesame oil, oral once a day, 0.1 μmol/kg·day, 14 days, vs sesame oil alone, FIGS. 4A and 4B
Experimental: Contusion injury was induced in 8-week-old female ddY mice (SLC) by the following procedure to give spinal cord injury (SCI) model mice. The ddY mice were maintained with free access to food and water in a controlled environment (22±2° C., 50±5% humidity, 12-h light/dark cycle starting at 7:00 am) Contusion injury was induced by exposing the lumbar vertebrae of each mouse in accordance with a conventional procedure, then placing the mouse in a stereotaxic apparatus (Narishige), and dropping a 6.5-g weight onto the first lumbar vertebrae (L1) from a height of 2 cm once. The mouse was then subjected to surgical procedures such as suture in a conventional manner. One hour after the induction of the contusion injury, the mice were randomly selected and divided into test groups and were subjected to the administration test described later in Example 10 and Comparative Example 5.
The locomotion behavior in the open field was evaluated using the Basso Mouse Scale (BMS) (see, for example, Engesser-Cesar C, Anderson A J, Basso D M et al., (2005), Voluntary wheel running improves recovery from a moderate spinal cord injury, J Neurotrauma 22: 157-171), which was a general standard for the evaluation of the hindlimb motor function of spinal cord injury model mice, and a 0-30-point Toyama Mouse Scale (TMS), which was a modified BMS established by the inventors for better test accuracy. […]

normal mice (ddY) [2] = experiment: Object location memory test in normal mice (Reference Test 2); type: in vivo; settings: 10 μmol/kg·day, 5 days, ddY male 6 weeks, interval 48 hours
Experimental: ddY Mice were obtained from Japan SLC (Hamamatsu, Japan) In the Examples below, 6-week-old male ddY mice were used as normal mice. All mice were housed with free access to food and water and were kept in a controlled environment at 22±2° C., 50±5% humidity, and 12-h light/dark cycle starting at 7:00 am.
Testing was carried out in a dimly illuminated room (about 100 lx). An appropriate time interval between a training session and a test session was set based on the results of a preliminary test using another group of mice. The object location memory test utilizes animals' habit of showing interest in a novel object. The two opposite walls of a four-walled open-field box for the test had wall coverings with a distinct pattern. […] In the test session, one of the objects was moved to a different location, and the mice were allowed to explore freely for 10 minutes. The increase of the number of times a mouse preferentially explored the identical but relocated object was used as an index of the location memory. That is, the test session determines whether a mouse remembers the previous exposure to an object in the training session. In the Examples below, the ratio (%) of the number of times a mouse explored the object after relocation to the total exploration time was calculated as a preference index. […]

normal mice (ddY) [3] = experiment: Object recognition memory test in normal mice; type: in vivo; settings: Example 12: suspension in sesame oil, oral, 0.1 μmol/kg·day, 4 days; ddY male and female 9 weeks; interval 48 hours; FIG. 10
Experimental: […] All mice were housed with free access to food and water and were kept in a controlled environment at 22±2° C., 50±5% humidity, and 12-h light/dark cycle starting at 7:00 am.
The next day of the measurement of spontaneous motor activity, an object recognition memory test was performed as described in Joyashiki, E. et al., Int J Neurosci, 121, 181-190, 2011 and Tohda, C. et al., Int J Neurosci, 121, 641-648, 2011, reported by the inventors and others. Testing was carried out in a dimly illuminated room (about 100 lx). An appropriate time interval between a training session and a test session was set based on the results of a preliminary test using another group of mice. The object recognition memory test utilizes animals' habit of showing interest in a novel object. The inner walls of the open-field box for the test had no marks. In the training session, two identical objects were placed in the field, and mice were allowed to explore freely for 10 minutes. In the test session, the location of the objects was not changed, but one of the objects was replaced with a novel object, and the mice were allowed to explore freely for 10 minutes. […] In the Examples below, the ratio (%) of the number of times a mouse explored the novel object to the total exploration time was calculated as a preference index. […]

normal or AD model mice = settings: intraperitoneal administration; cited from earlier work

Row | SMILES | hindlimb motor function (BMS and TMS scores) [1] | memory enhancing effect, object location memory test (normal mice (ddY) [2]; Reference Example 1: dissolved in aqueous solvent (ethanol/5% glucose), oral, FIG. 6A) | memory enhancing effect, object location memory test (normal mice (ddY) [2]; Reference Example 2: dissolved in aqueous solvent, intraperitoneal, FIG. 6B) | object recognition memory (normal mice (ddY) [3]) | memory (normal or AD model mice)
1 | C[C@@H]1CC[C@@]2(OC1)O[C@H]1C[C@H]3[C@@H]4CC=C5C[C@@H](F)CC[C@]5(C)[C@H]4CC[C@]3(C)[C@H]1[C@@H]2C [Dios-F, (3β,25R)-3-fluorospirost-5-ene] | significantly improved |  |  |  | 
2 | C[C@@H]1CC[C@@]2(OC1)O[C@H]1C[C@H]3[C@@H]4CC=C5C[C@@H](O)CC[C@]5(C)[C@H]4CC[C@]3(C)[C@H]1[C@@H]2C [diosgenin, Diosgenin] |  | no memory enhancing effect | a significant memory enhancing effect | a significant enhancement of the object recognition memory | enhanced the memory
